Test results from ChEMBL document CHEMBL4602670, “Palhinosides A-H: Flavone Glucosidic Truxinate Esters with Neuroprotective Activities from Palhinhaea cernua” (J Nat Prod, 2020).
The source made the active and inactive calls. The rule behind the calls is not given here.

The molecules below were run on HT-22 (assay: Neuroprotective activity against glutamate-induced cell damage in mouse HT22 assessed as increase cell viability at 1.3 to 15 uM after 24 hrs by luminescent cell viability assay).
Format: functional, cell-based

SMILES | Activity
COC(=O)[C@H]1[C@@H](C(=O)OC[C@H]2O[C@@H](Oc3cc(O)c4c(=O)cc(-c5ccc(O)cc5)oc4c3)[C@H](O)[C@@H](O)[C@@H]2O)[C@H](c2ccc(O)cc2)[C@@H]1c1ccc(O)cc1 | Active
COC(=O)[C@H]1[C@H](C(=O)OC[C@H]2O[C@@H](Oc3cc(O)c4c(=O)cc(-c5ccc(O[C@@H]6O[C@H](CO)[C@@H](O)[C@H](O)[C@H]6O)cc5)oc4c3)[C@H](O)[C@@H](O)[C@@H]2O)[C@H](c2ccc(O)cc2)[C@H]1c1ccc(O)cc1 | Active
COC(=O)[C@H]1[C@H](C(=O)OC[C@H]2O[C@@H](Oc3cc(O)c4c(=O)cc(-c5ccc(O)cc5)oc4c3)[C@H](O)[C@@H](O)[C@@H]2O)[C@H](c2ccc(O)cc2)[C@H]1c1ccc(O)cc1 | Active
COC(=O)[C@H]1[C@@H](C(=O)OC[C@H]2O[C@@H](Oc3cc(O)c4c(=O)cc(-c5ccc(O[C@@H]6O[C@H](CO)[C@@H](O)[C@H](O)[C@H]6O)cc5)oc4c3)[C@H](O)[C@@H](O)[C@@H]2O)[C@H](c2ccc(O)cc2)[C@@H]1c1ccc(O)cc1 | Active
Cc1c(C)c2c(c(C)c1O)CCC(C)(C(=O)O)O2 (stereo not given) | Active

The molecules below were run on HT-22 (assay: Neuroprotective activity against glutamate-induced cell damage in mouse HT22 assessed as increase cell viability at 0.6 to 15 uM after 24 hrs by luminescent cell viability assay).
Format: functional, cell-based

SMILES | Activity
O=C(OC[C@H]1O[C@@H](Oc2cc(O)c3c(=O)cc(-c4ccc(O)cc4)oc3c2)[C@H](O)[C@@H](O)[C@@H]1O)[C@H]1[C@H](C(=O)OC[C@H]2O[C@@H](Oc3cc(O)c4c(=O)cc(-c5ccc(O[C@H]6O[C@@H](CO)[C@H](O)[C@@H](O)[C@@H]6O)cc5)oc4c3)[C@H](O)[C@@H](O)[C@@H]2O)[C@H](c2ccc(O)cc2)[C@H]1c1ccc(O)cc1 | inactive
O=C(OC[C@H]1O[C@@H](Oc2cc(O)c3c(=O)cc(-c4ccc(O[C@H]5O[C@@H](CO)[C@H](O)[C@@H](O)[C@@H]5O)cc4)oc3c2)[C@H](O)[C@@H](O)[C@@H]1O)[C@@H]1[C@H](C(=O)OC[C@H]2O[C@@H](Oc3cc(O)c4c(=O)cc(-c5ccc(O)cc5)oc4c3)[C@H](O)[C@@H](O)[C@@H]2O)[C@@H](c2ccc(O)cc2)[C@H]1c1ccc(O)cc1 | inactive
O=C(OC[C@H]1O[C@@H](Oc2cc(O)c3c(=O)cc(-c4ccc(O[C@H]5O[C@@H](CO)[C@H](O)[C@@H](O)[C@@H]5O)cc4)oc3c2)[C@H](O)[C@@H](O)[C@@H]1O)[C@H]1[C@H](C(=O)OC[C@H]2O[C@@H](Oc3cc(O)c4c(=O)cc(-c5ccc(O[C@H]6O[C@@H](CO)[C@H](O)[C@@H](O)[C@@H]6O)cc5)oc4c3)[C@H](O)[C@@H](O)[C@@H]2O)[C@H](c2ccc(O)cc2)[C@H]1c1ccc(O)cc1 | inactive
O=C(OC[C@H]1O[C@@H](Oc2cc(O)c3c(=O)cc(-c4ccc(O)cc4)oc3c2)[C@H](O)[C@@H](O)[C@@H]1O)[C@@H]1[C@H](C(=O)OC[C@H]2O[C@@H](Oc3cc(O)c4c(=O)cc(-c5ccc(O)cc5)oc4c3)[C@H](O)[C@@H](O)[C@@H]2O)[C@@H](c2ccc(O)cc2)[C@H]1c1ccc(O)cc1 | inactive

What follows are molecules tested on HT-22 (assay: Neuroprotective activity in mouse HT22 assessed as decrease in glutamate-induced ROS generation preincubated for 8 hrs followed by addition of 2,7-dichlorofluorescein diacetate and measured after 30 mins by fluorescence based assay).
Format: functional, cell-based

SMILES | Activity
COC(=O)[C@H]1[C@@H](C(=O)OC[C@H]2O[C@@H](Oc3cc(O)c4c(=O)cc(-c5ccc(O)cc5)oc4c3)[C@H](O)[C@@H](O)[C@@H]2O)[C@H](c2ccc(O)cc2)[C@@H]1c1ccc(O)cc1 | Dose-dependent effect
